Test results from patent US20060095978A1, “Screening assay” (priority 2002, published 2006).

Key:
IFN-γ = assay: Serum IFN-γ in OVA/OVA323-339 stimulated DO11.10 mice (ELISA); type: in vivo, mouse; details: for IFN-γ level in pg/ml serum on day 0 after 0 hours: 0 hours (before injection); for increase of INF-γ serum concentration: 90 μg per mouse
Description: Groups of six, 8-10 weeks old, male or female DO11.10 mice weighing between 20-22 g are obtained as described in Murphy K. M. et al. 1990, Science 250:1720-1722. The animals are maintained in Microvent positive air supply cages (22±1° C., 55±5% relative humidity, 50-70 changes of fresh air/hour and 12 hours day and night cycle) with sawdust bedding. Standard laboratory mouse chow (SNIFF, Soest, Germany) and drinking water is given ad libidum. The animals are used for the study after an adaptation period of 10-14 days and grouped (6 per group) in type II Macrolon cages one day before the experiment.
Groups of six DO11.10 mice are i.p. injected with 10 μg of ovalbumin (OVA, Sigma, St. Louis, USA) absorbed to 2 mg of Al(OH)3 (Alu Gel S; 2% Al(OH)3, Serva, Heidelberg, FRG) and diluted with saline to a volume of 0.2 ml or various amounts (1, 3, 10, 30, or 90 μg per mouse) of alum-precipitated OVA323-339 peptide (98% purity, piChem R&D, Graz Austria) in 0.2 ml on days 0 and 14. Before and at different time points on days 0 and 14 after the OVA or OVA323-339 peptide administration about 200 μl of blood are collected by puncture of the retro-orbital plexus under ether anesthesia.
The sera are collected and stored frozen at −20° C. until analyzed. […]
Murine IL-2, IFN-γ and IL-4 are analyzed by immunoassays (Quantikine R&D Systems, Minneapolis, Minn., USA). Results are expressed as pg per ml serum expressed as mean±SEM pg of the cytokine indicated per ml serum. Test and control groups are evaluated by Dunn test by Kruskall-Wallis One Way Anova using the SigmaStat® program. […]
Mice of the control group are injected with alum. Blood is collected before and at 2, 4, and 6 hours after the first peptide injection. INF-γ is determined in the sera by an ELISA. Results are expressed as mean pg per ml serum±SEM. […]

IL-1α = assay: Serum IL-1α in DO11.10 mice primed with OVA-peptide and challenged with LPS; type: in vivo, mouse; details: challenged with the highest LPS dose
Description: Animals are provided as described in Example 2a).
b) Administration of OVA323-339 (=OVA-peptide) and LPS Groups of six DO11.10 mice receive i.p. 30 μg of OVA323-339 peptide (98% purity, pi Chem R&D, Graz Austria) in 0.2 ml 0.9% saline per mouse. Control mice are injected i.p. with the same amount of saline.
18 hours later the mice are challenged i.p. with 100, 300 or 500 μg LPS (E. coli 0111: B4 Sigma Vienna, Austria). At 2, 4 and 6 hours after the LPS administration about 200 μl of blood are collected by puncture of the retro-orbital plexus under ether anesthesia. The sera are collected and stored frozen at −20° until analyzed.
Murine IL-1α, IL-1β and TNF-α serum levels are determined by ELISAs (IL-1α and TNF-α, Bender MedSystems, Vienna Austria; IL-1β, Quantikine R&D Systems, Minneapolis, Minn.). Results are expressed as pg per ml serum. Differences in the serum cytokines concentrations between the different experimental groups are examined for statistical significance by the Mann-Whitney U test, two tailed. Results are expressed as the mean±SEM. p<0.05 is regarded as significant.
The injection of OVA-peptide at doses between 3 and 90 μg per mouse increases serum concentrations of IFN-γ as well as other cytokines, such as IL-4 and IL-2, in a dose/amount-dependent way. […] The serum IL-1α levels are expressed as mean pg per ml serum±SEM.

OVA323-339: peptide derived from chicken ovalbumin containing amino acids from position 323 to 339 (KISQAVHAAHAEINEAG; UniProt P01012 323-339, looked up, fragment)
IFN-γ level in pg/ml serum on day 0 after 0 hours (IFN-γ; 1 μg OVA323-339 i.p.): 11.181 ± 1.288 pg/mL | IFN-γ level in pg/ml serum on day 0 after 2 hours (IFN-γ; 1 μg OVA323-339 i.p.): 18.047 ± 3.944 pg/mL | IFN-γ level in pg/ml serum on day 0 after 4 hours (IFN-γ; 1 μg OVA323-339 i.p.): 41.034 ± 12.394 pg/mL | IFN-γ level in pg/ml serum on day 0 after 6 hours (IFN-γ; 1 μg OVA323-339 i.p.): 15.925 ± 4.594 pg/mL | IFN-γ level in pg/ml serum on day 0 after 0 hours (IFN-γ; 3 μg OVA323-339 i.p.): 8.230 ± 1.430 pg/mL | IFN-γ level in pg/ml serum on day 0 after 2 hours (IFN-γ; 3 μg OVA323-339 i.p.): 62.724 ± 7.939 pg/mL | IFN-γ level in pg/ml serum on day 0 after 4 hours (IFN-γ; 3 μg OVA323-339 i.p.): 63.023 ± 12.462 pg/mL | IFN-γ level in pg/ml serum on day 0 after 6 hours (IFN-γ; 3 μg OVA323-339 i.p.): 25.962 ± 8.858 pg/mL | increase of serum INF-γ levels compared to alum control (IFN-γ; 3 μg, at 2 and 4 hours): about 11 fold | IFN-γ level in pg/ml serum on day 0 after 0 hours (IFN-γ; 10 μg OVA323-339 i.p.): 0.374 ± 0.324 pg/mL | IFN-γ level in pg/ml serum on day 0 after 2 hours (IFN-γ; 10 μg OVA323-339 i.p.): 65.927 ± 23.147 pg/mL | IFN-γ level in pg/ml serum on day 0 after 4 hours (IFN-γ; 10 μg OVA323-339 i.p.): 202.260 ± 48.410 pg/mL | IFN-γ level in pg/ml serum on day 0 after 6 hours (IFN-γ; 10 μg OVA323-339 i.p.): 24.047 ± 9.455 pg/mL | rise in INF-γ serum levels compared to alum alone (IFN-γ; 10 μg OVA323-339 peptide 2 weeks after 10 μg OVA): ~25 fold | IFN-γ level in pg/ml serum on day 0 after 0 hours (IFN-γ; 30 μg OVA323-339 i.p.): 3.988 ± 0.700 pg/mL | IFN-γ level in pg/ml serum on day 0 after 2 hours (IFN-γ; 30 μg OVA323-339 i.p.): 207.727 ± 62.093 pg/mL | IFN-γ level in pg/ml serum on day 0 after 4 hours (IFN-γ; 30 μg OVA323-339 i.p.): 176.807 ± 79.268 pg/mL | IFN-γ level in pg/ml serum on day 0 after 6 hours (IFN-γ; 30 μg OVA323-339 i.p.): 187.325 ± 62.370 pg/mL | increase of serum IFN-γ levels (IFN-γ; 30 μg per mouse, at 2, 4 and 6 hours): 32-38 fold | IFN-γ level in pg/ml serum on day 0 after 2 hours (IFN-γ; 90 μg OVA323-339 i.p.): 407.899 ± 106.513 pg/mL | IFN-γ level in pg/ml serum on day 0 after 4 hours (IFN-γ; 90 μg OVA323-339 i.p.): 413.925 ± 65.247 pg/mL | IFN-γ level in pg/ml serum on day 0 after 6 hours (IFN-γ; 90 μg OVA323-339 i.p.): 514.918 ± 72.758 pg/mL | increase of INF-γ serum concentration (IFN-γ; at 2 and 4 hours): 75 fold | increase of INF-γ serum concentration (IFN-γ; at 6 hours): 94 fold | increase of serum IFN-γ levels (IFN-γ; 10 g (printed) of peptide, at 4 hours): about 40 fold | increase in IFN-γ levels in sera (IFN-γ; first injection of 10 μg peptide, 3 hours after): 50 fold | change in serum INF-γ levels (IFN-γ; primary stimulation, 1 μg per mouse, only at 4 hours): small increase | rise of INF-γ levels after second sensitization (IFN-γ; second sensitization, same dose (10 μg) of peptide): same magnitude | effect of OVA-peptide priming on IL-1α serum levels (IL-1α): rapid increase
